{"source": "PubChem BioAssay AID1963845", "about": "(Molecular Pharmacology Branch, DTP, NCI, 2024);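 further: luminescence signal used as surrogate measure of viable cells; spheroids exposed to compounds for seven days before readout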;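 on viability, T/C: 100% = DMSO vehicle control viability as luminescence relative to vehicle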", "test_system": "429239-143-T-J1-PDC complex spheroid viability", "experiment": "Anticancer human tumor 429239-143-T-J1-PDC patient-derived small cell lung carcinoma cell line growth inhibition [POLQ]", "settings": "for IC50: curve of first compound; for viability, T/C: stronger effect = lower value", "in_short": "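Complex spheroid viability model combining PDC tumour cells with endothelial (HUVEC) and MSC stromal cells. Novobiocin, ART-558 or RP6685 were tested singly and in combination with standard and investigational anticancer drugs. Each was titrated in half-log steps from near clinical Cmax, or from 10 microM where Cmax was unknown.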", "key": {"[1]": {"settings": "second compound 0.0316 µM, first compound 0.0316 µM"}, "[2]": {"settings": "second compound 0.0316 µM, first compound 0.1 µM"}, "[3]": {"settings": "second compound 0.0316 µM, first compound 0.316 µM"}, "[4]": {"settings": "second compound 0.0316 µM, first compound 1 µM"}, "[5]": {"settings": "second compound 0.0316 µM, first compound 3.16 µM"}, "[6]": {"settings": "second compound 0.0316 µM, first compound 10 µM"}, "[7]": {"settings": "second compound 0.1 µM, first compound 0.0316 µM"}, "[8]": {"settings": "second compound 0.1 µM, first compound 0.1 µM"}, "[9]": {"settings": "second compound 0.1 µM, first compound 0.316 µM"}, "[10]": {"settings": "second compound 0.1 µM, first compound 1 µM"}, "[11]": {"settings": "second compound 0.1 µM, first compound 3.16 µM"}, "[12]": {"settings": "second compound 0.1 µM, first compound 10 µM"}, "[13]": {"settings": "second compound 0.316 µM, first compound 0.0316 µM"}, "[14]": {"settings": "second compound 0.316 µM, first compound 0.1 µM"}, "[15]": {"settings": "second compound 0.316 µM, first compound 0.316 µM"}, "[16]": {"settings": "second compound 0.316 µM, first compound 1 µM"}, "[17]": {"settings": "second compound 0.316 µM, first compound 3.16 µM"}, "[18]": {"settings": "second compound 0.316 µM, first compound 10 µM"}, "[19]": {"settings": "second compound 1 µM, first compound 0.0316 µM"}, "[20]": {"settings": "second compound 1 µM, first compound 0.1 µM"}, "[21]": {"settings": "second compound 1 µM, first compound 0.316 µM"}, "[22]": {"settings": "second compound 1 µM, first compound 1 µM"}, "[23]": {"settings": "second compound 1 µM, first compound 3.16 µM"}, "[24]": {"settings": "second compound 1 µM, first compound 10 µM"}, "[25]": {"settings": "second compound 3.16 µM, first compound 0.0316 µM"}, "[26]": {"settings": "second compound 3.16 µM, first compound 0.1 µM"}, "[27]": {"settings": "second compound 3.16 µM, first compound 0.316 µM"}, "[28]": {"settings": "second compound 3.16 µM, first compound 1 µM"}, "[29]": {"settings": "second compound 3.16 µM, first compound 3.16 µM"}, "[30]": {"settings": "second compound 3.16 µM, first compound 10 µM"}, "[31]": {"settings": "second compound 10 µM, first compound 0.0316 µM"}, "[32]": {"settings": "second compound 10 µM, first compound 0.1 µM"}, "[33]": {"settings": "second compound 10 µM, first compound 0.316 µM"}, "[34]": {"settings": "second compound 10 µM, first compound 1 µM"}, "[35]": {"settings": "second compound 10 µM, first compound 3.16 µM"}, "[36]": {"settings": "second compound 10 µM, first compound 10 µM"}}, "data": [{"smiles": "O=C(Nc1ccc(O)c(NS(=O)(=O)c2ccc(F)cc2)c1)c1ccc(-c2ccccc2)cc1", "note": "+ Cc1cccc(N(C)C(=O)C2C(O)CCN2c2nc(C)cc(C(F)(F)F)c2C#N)c1", "values": [{"measurement": "IC50", "setting": "second compound 0.0316 µM", "value": "> 10", "unit": "µM"}, {"measurement": "IC50", "setting": "second compound 0.1 µM", "value": "> 10", "unit": "µM"}, {"measurement": "IC50", "setting": "second compound 0.316 µM", "value": "> 10", "unit": "µM"}, {"measurement": "IC50", "setting": "second compound 1 µM", "value": "> 10", "unit": "µM"}, {"measurement": "IC50", "setting": "second compound 3.16 µM", "value": "> 10", "unit": "µM"}, {"measurement": "IC50", "setting": "second compound 10 µM", "value": "> 10", "unit": "µM"}, {"measurement": "viability, T/C", "setting": "[1]", "value": 93.8, "unit": "%"}, {"measurement": "viability, T/C", "setting": "[2]", "value": 104, "unit": "%"}, {"measurement": "viability, T/C", "setting": "[3]", "value": 91.9, "unit": "%"}, {"measurement": "viability, T/C", "setting": "[4]", "value": 121, "unit": "%"}, {"measurement": "viability, T/C", "setting": "[5]", "value": 100, "unit": "%"}, {"measurement": "viability, T/C", "setting": "[6]", "value": 105, "unit": "%"}, {"measurement": "viability, T/C", "setting": "[7]", "value": 100, "unit": "%"}, {"measurement": "viability, T/C", "setting": "[8]", "value": 112, "unit": "%"}, {"measurement": "viability, T/C", "setting": "[9]", "value": 111, "unit": "%"}, {"measurement": "viability, T/C", "setting": "[10]", "value": 99.8, "unit": "%"}, {"measurement": "viability, T/C", "setting": "[11]", "value": 107, "unit": "%"}, {"measurement": "viability, T/C", "setting": "[12]", "value": 102, "unit": "%"}, {"measurement": "viability, T/C", "setting": "[13]", "value": 100, "unit": "%"}, {"measurement": "viability, T/C", "setting": "[14]", "value": 110, "unit": "%"}, {"measurement": "viability, T/C", "setting": "[15]", "value": 102, "unit": "%"}, {"measurement": "viability, T/C", "setting": "[16]", "value": 106, "unit": "%"}, {"measurement": "viability, T/C", "setting": "[17]", "value": 118, "unit": "%"}, {"measurement": "viability, T/C", "setting": "[18]", "value": 107, "unit": "%"}, {"measurement": "viability, T/C", "setting": "[19]", "value": 103, "unit": "%"}, {"measurement": "viability, T/C", "setting": "[20]", "value": 99.5, "unit": "%"}, {"measurement": "viability, T/C", "setting": "[21]", "value": 94.1, "unit": "%"}, {"measurement": "viability, T/C", "setting": "[22]", "value": 105, "unit": "%"}, {"measurement": "viability, T/C", "setting": "[23]", "value": 112, "unit": "%"}, {"measurement": "viability, T/C", "setting": "[24]", "value": 97, "unit": "%"}, {"measurement": "viability, T/C", "setting": "[25]", "value": 106, "unit": "%"}, {"measurement": "viability, T/C", "setting": "[26]", "value": 106, "unit": "%"}, {"measurement": "viability, T/C", "setting": "[27]", "value": 108, "unit": "%"}, {"measurement": "viability, T/C", "setting": "[28]", "value": 103, "unit": "%"}, {"measurement": "viability, T/C", "setting": "[29]", "value": 105, "unit": "%"}, {"measurement": "viability, T/C", "setting": "[30]", "value": 107, "unit": "%"}, {"measurement": "viability, T/C", "setting": "[31]", "value": 111, "unit": "%"}, {"measurement": "viability, T/C", "setting": "[32]", "value": 98.7, "unit": "%"}, {"measurement": "viability, T/C", "setting": "[33]", "value": 107, "unit": "%"}, {"measurement": "viability, T/C", "setting": "[34]", "value": 105, "unit": "%"}, {"measurement": "viability, T/C", "setting": "[35]", "value": 109, "unit": "%"}, {"measurement": "viability, T/C", "setting": "[36]", "value": 104, "unit": "%"}]}, {"smiles": "CCCS(=O)(=O)Nc1ccc(F)c(C(=O)c2c[nH]c3ncc(-c4ccc(Cl)cc4)cc23)c1F", "note": "+ Cc1cccc(N(C)C(=O)C2C(O)CCN2c2nc(C)cc(C(F)(F)F)c2C#N)c1", "values": [{"measurement": "IC50", "setting": "second compound 0.0316 µM", "value": "> 10", "unit": "µM"}, {"measurement": "IC50", "setting": "second compound 0.1 µM", "value": "> 10", "unit": "µM"}, {"measurement": "IC50", "setting": "second compound 0.316 µM", "value": "> 10", "unit": "µM"}, {"measurement": "IC50", "setting": "second compound 1 µM", "value": "> 10", "unit": "µM"}, {"measurement": "IC50", "setting": "second compound 3.16 µM", "value": "> 10", "unit": "µM"}, {"measurement": "IC50", "setting": "second compound 10 µM", "value": "> 10", "unit": "µM"}, {"measurement": "viability, T/C", "setting": "[1]", "value": 91.3, "unit": "%"}, {"measurement": "viability, T/C", "setting": "[2]", "value": 106, "unit": "%"}, {"measurement": "viability, T/C", "setting": "[3]", "value": 88.6, "unit": "%"}, {"measurement": "viability, T/C", "setting": "[4]", "value": 93.4, "unit": "%"}, {"measurement": "viability, T/C", "setting": "[5]", "value": 94, "unit": "%"}, {"measurement": "viability, T/C", "setting": "[6]", "value": 81.7, "unit": "%"}, {"measurement": "viability, T/C", "setting": "[7]", "value": 92.2, "unit": "%"}, {"measurement": "viability, T/C", "setting": "[8]", "value": 89.9, "unit": "%"}, {"measurement": "viability, T/C", "setting": "[9]", "value": 89.4, "unit": "%"}, {"measurement": "viability, T/C", "setting": "[10]", "value": 97.2, "unit": "%"}, {"measurement": "viability, T/C", "setting": "[11]", "value": 93.6, "unit": "%"}, {"measurement": "viability, T/C", "setting": "[12]", "value": 82.8, "unit": "%"}, {"measurement": "viability, T/C", "setting": "[13]", "value": 99.5, "unit": "%"}, {"measurement": "viability, T/C", "setting": "[14]", "value": 92.8, "unit": "%"}, {"measurement": "viability, T/C", "setting": "[15]", "value": 96.9, "unit": "%"}, {"measurement": "viability, T/C", "setting": "[16]", "value": 94.1, "unit": "%"}, {"measurement": "viability, T/C", "setting": "[17]", "value": 87.5, "unit": "%"}, {"measurement": "viability, T/C", "setting": "[18]", "value": 79, "unit": "%"}, {"measurement": "viability, T/C", "setting": "[19]", "value": 103, "unit": "%"}, {"measurement": "viability, T/C", "setting": "[20]", "value": 87.7, "unit": "%"}, {"measurement": "viability, T/C", "setting": "[21]", "value": 92.3, "unit": "%"}, {"measurement": "viability, T/C", "setting": "[22]", "value": 91, "unit": "%"}, {"measurement": "viability, T/C", "setting": "[23]", "value": 90.3, "unit": "%"}, {"measurement": "viability, T/C", "setting": "[24]", "value": 77.5, "unit": "%"}, {"measurement": "viability, T/C", "setting": "[25]", "value": 98.8, "unit": "%"}, {"measurement": "viability, T/C", "setting": "[26]", "value": 96.9, "unit": "%"}, {"measurement": "viability, T/C", "setting": "[27]", "value": 97.4, "unit": "%"}, {"measurement": "viability, T/C", "setting": "[28]", "value": 94.2, "unit": "%"}, {"measurement": "viability, T/C", "setting": "[29]", "value": 105, "unit": "%"}, {"measurement": "viability, T/C", "setting": "[30]", "value": 79.5, "unit": "%"}, {"measurement": "viability, T/C", "setting": "[31]", "value": 100, "unit": "%"}, {"measurement": "viability, T/C", "setting": "[32]", "value": 105, "unit": "%"}, {"measurement": "viability, T/C", "setting": "[33]", "value": 85.2, "unit": "%"}, {"measurement": "viability, T/C", "setting": "[34]", "value": 93.5, "unit": "%"}, {"measurement": "viability, T/C", "setting": "[35]", "value": 98.8, "unit": "%"}, {"measurement": "viability, T/C", "setting": "[36]", "value": 81.9, "unit": "%"}]}]}
